Laboratory results taken from PMC10085937 (Clinical Pharmacokinetics, 2023).
“Also recorded” adds a separate entry of the source. Read-outs that look alike come from different tables or passages of the source.

Tests used:
[1] = format: in vivo, human; details: for Effect of multiple-dose cilofexor on pravastatin exposure (AUC and Cmax): pravastatin 40 mg; for Effect of multiple-dose cilofexor on pravastatin exposure (AUC and Cmax) / Effect of multiple-dose cilofexor on rosuvastatin exposure (AUC and Cmax): vs alone; for Effect of multiple-dose cilofexor on rosuvastatin exposure (AUC and Cmax): rosuvastatin 10 mg; for Effect of multiple-dose cilofexor on midazolam exposure (AUC and Cmax): midazolam 2 mg, vs midazolam alone
[2] = format: in vivo, human; details: for Effect of grapefruit juice on cilofexor exposure (AUC and Cmax): grapefruit juice 16 ounces; for Effect of grapefruit juice on cilofexor exposure (AUC and Cmax) / Effect of multiple-dose voriconazole on cilofexor exposure (AUC): vs cilofexor alone; for Effect of multiple-dose voriconazole on cilofexor exposure (AUC): voriconazole 200 mg BID
CYP2C8 [3] = details: in vitro; cited from earlier work
CYP3A [4] = details: in vitro; cited from earlier work
CYP2C9 = details: in vitro; cited from earlier work
OATP1B1 [5] = details: in vitro; ref data on file, Gilead Sciences, Inc.; cited from earlier work
OATP1B3 [6] = details: in vitro; ref data on file, Gilead Sciences, Inc.; cited from earlier work
OATP2B1 [7] = details: in vitro; ref data on file, Gilead Sciences, Inc.; cited from earlier work
[8] = cited from earlier work
[9] = cited from earlier work; remark: listed apart in the source
P-gp = details: in vitro; cited from earlier work
BCRP = details: in vitro; cited from earlier work
NTCP = details: in vitro; cited from earlier work
bile salt export pump = details: in vitro; cited from earlier work
[10] = tested on: organic anion transporter (OAT)1; details: in vitro; cited from earlier work
OAT3 = details: in vitro; cited from earlier work
[11] = tested on: organic cation transporter (OCT)2; details: in vitro; cited from earlier work
[12] = tested on: multidrug and toxin extrusion protein (MATE) 1; details: in vitro; cited from earlier work
MATE2-K = details: in vitro; cited from earlier work
CYP2C8 [13] = details: in vitro; rCYP2C8 showing the fastest rate of metabolism; cited from earlier work
CYP2C19 = details: in vitro; cited from earlier work
CYP3A [14] = details: in vitro; cited from earlier work; remark: listed apart in the source
P-glycoprotein (P-gp) = details: in vitro; cited from earlier work
[15] = tested on: breast cancer resistance protein (BCRP); details: in vitro; cited from earlier work
[16] = tested on: sodium taurocholate co-transporting polypeptide (NTCP); details: in vitro; cited from earlier work
OATP1B1 [17] = details: in vitro; cited from earlier work
OATP1B3 [18] = details: in vitro; cited from earlier work
OATP2B1 [19] = details: in vitro; cited from earlier work
[20] = dose range of 10 to 100 mg; cited from earlier work
[21] = following multiple-dose rifampin 600 mg
[22] = with multiple-dose gemfibrozil 600 mg BID
[23] = with single-dose cyclosporine 600 mg
[24] = with single-dose rifampin 600 mg

CC[C@H](C)C(=O)O[C@H]1C[C@H](O)C=C2C=C[C@H](C)[C@H](CC[C@@H](O)C[C@@H](O)CC(=O)O)[C@H]21 [pravastatin]
Effect of multiple-dose cilofexor on pravastatin exposure (AUC and Cmax) [1]: did not affect; also recorded: did not alter
Effect of multiple-dose cilofexor on pravastatin exposure (AUC and Cmax) ([1]; listed as Pravastatin): similar

O=C(O)c1ccnc(N2CC(O)(c3ccc(OCc4c(-c5c(Cl)cccc5Cl)noc4C4CC4)cc3Cl)C2)c1 [Cilofexor]
Cilofexor AUC compared with cilofexor alone [2, 21]: 33%
Cilofexor Cmax compared with cilofexor alone [2, 21]: 35%
Effect of grapefruit juice on cilofexor exposure (AUC and Cmax) [2]: similar
Effect of grapefruit juice on cilofexor exposure (AUC and Cmax) ([2]; listed as cilofexor): did not affect
Effect of multiple-dose voriconazole on cilofexor exposure (AUC) [2]: similar
Effect of multiple-dose voriconazole on cilofexor exposure (AUC) ([2]; listed as cilofexor): did not affect; also recorded: did not impact
Cilofexor AUC compared with cilofexor alone [2, 22]: 175%
Cilofexor Cmax compared with cilofexor alone [2, 22]: 139%
Cilofexor Cmax lower than cilofexor alone ([2]; with multiple-dose voriconazole): 23%
Median cilofexor t½ longer than cilofexor alone ([2]; with single-dose cyclosporine): approximately 2.5 fold
Cilofexor AUC compared with cilofexor alone [2, 23]: 651%
Cilofexor Cmax compared with cilofexor alone [2, 23]: 512%
Median cilofexor t½ longer than cilofexor alone ([2]; with single-dose rifampin): approximately 2.8 fold
Cilofexor AUC compared with cilofexor alone [2, 24]: 795%
Cilofexor Cmax compared with cilofexor alone [2, 24]: 547%
Mechanism-based inhibition (CYP2C8 [3]): not a mechanism-based inhibitor
Mechanism-based inhibition (CYP3A [4]): not a mechanism-based inhibitor
Mechanism-based inhibition (CYP2C9): not a mechanism-based inhibitor
IC50 (OATP1B1 [5]): 680 nM
IC50 (OATP1B3 [6]): 410 nM
IC50 (OATP2B1 [7]): 210 nM
Protein binding in human plasma [8]: > 99%
Cilofexor dose eliminated in feces [9]: 96.7%
Dose remaining as intact cilofexor (feces) [9]: 34.1%
Inhibition of P-gp (P-gp): little to no inhibition
Inhibition of BCRP (BCRP): little to no inhibition
Inhibition of NTCP (NTCP): little to no inhibition
Inhibition of bile salt export pump (bile salt export pump): little to no inhibition
Inhibition of OAT1 [10]: little to no inhibition
Inhibition of OAT3 (OAT3): little to no inhibition
Inhibition of OCT2 [11]: little to no inhibition
Inhibition of MATE1 [12]: little to no inhibition
Inhibition of MATE2-K (MATE2-K): little to no inhibition
Substrate of CYP2C8 (CYP2C8 [13]): substrate
Substrate of CYP2C19 (CYP2C19): substrate
Substrate of CYP3A (CYP3A [14]): substrate
Substrate of P-gp (P-glycoprotein (P-gp)): substrate
Substrate of BCRP [15]: substrate
Substrate of NTCP [16]: substrate
Substrate of OATP1B1 (OATP1B1 [17]): substrate
Substrate of OATP1B3 (OATP1B3 [18]): substrate
Substrate of OATP2B1 (OATP2B1 [19]): substrate
Dose proportionality of plasma exposure [20]: less than dose-proportional

CC(C)c1nc(N(C)S(C)(=O)=O)nc(-c2ccc(F)cc2)c1/C=C/[C@@H](O)C[C@@H](O)CC(=O)O [rosuvastatin]
Effect of multiple-dose cilofexor on rosuvastatin exposure (AUC and Cmax) [1]: did not alter
Effect of multiple-dose cilofexor on rosuvastatin exposure (AUC and Cmax) ([1]; listed as Rosuvastatin): similar

Cc1ncc2n1-c1ccc(Cl)cc1C(c1ccccc1F)=NC2 [midazolam]
Effect of multiple-dose cilofexor on midazolam exposure (AUC and Cmax) [1]: did not affect; also recorded: did not alter
Effect of multiple-dose cilofexor on midazolam exposure (AUC and Cmax) ([1]; listed as Midazolam): similar

CC(C)c1c(C(=O)Nc2ccccc2O)c(-c2ccccc2)c(-c2ccc(F)cc2)n1CC[C@@H](O)C[C@@H](O)CC(=O)O [o-OH-atorvastatin, o-hydroxyatorvastatin]
o-OH-atorvastatin AUC and Cmax with multiple-dose cilofexor compared to atorvastatin alone ([1]; atorvastatin 10 mg): similar
